According to US20240207267A1, “(R)-Glutarimide CRBN Ligands and Methods of Use” (BeiGene Switzerland GmbH, priority 2021, published 2024):

What was measured:
Assay type in all cases: cell-based
[1] = biological target: T1, BTK (TMD-8 cells) (Homo sapiens (Human), UniProt Q06187); test: BTK degradation HTRF assay in TMD-8 cells (Test Example 1); details: Table 3; for DC50: 6 h treatment, BTK degradation; for Dmax: TMD8, 6 h treatment, maximum percentage of BTK degradation
Method: 1c). […] TMD-8 cells are treated with compounds diluted in 0.2% DMSO, dilution is done according to the following protocol: (1) make 500× stock solution in DMSO from 1 mM by 6-fold dilution, total 8 doses were included; (2) make 2× solution in cell culture medium by transferring 0.5 μl 500× stock solution into 125 μl medium; (3) 15 μl of 2× solution is added to cells and incubate for 6 h.
(§1) After 6 h treatment, add 10 μl 4xlysis buffer to each well; seal the plate and incubate 30 min at room temperature on a plate shaker; Once the cells are lysed, 16 μL of cell lysate are transferred to a PE 384-well HTRF detection plate; 4 μL of pre-mixed HTRF antibodies are added to each well; Cover the plate with a plate sealer, spin 1000 rpm for 1 min, Incubate overnight at room temperature; Read on BMG PheraStar with HTRF protocol (337 nm-665 nm-620 nm).
(§2) The IC50 (DC50) value of a compound can be obtained by fitting the following equation
(§3) Y=Bottom+(TOP−Bottom)/(1+((IC50/X)^hillslope))
(§4) Wherein, X and Y are known values, and IC50, Hillslope, Top and Bottom are the parameters obtained by fitting with software. Y is the inhibition percentage (calculated from the equation), X is the concentration of the compound; IC50 is the concentration of the compound when the 50% inhibition is reached. The smaller the IC50 value is, the stronger the inhibitory ability of the compound is. Vice versa, the higher the IC50 value is, the weaker the ability the inhibitory ability of the compound is; Hillslope represents the slope of the fitted curve, generally around 1*; Bottom represents the minimum value of the curve obtained by data fitting, which is generally 0%±20%; Top represents the maximum value of the curve obtained by data fitting, which is generally 100%±20%. The experimental data were fitted by calculating and analyzing with Dotmatics data analysis software.

[2] = biological target: T1, BTK (TMD-8 cells); test: BTK degradation HTRF assay in TMD-8 cells (Test Example 3); details: 6 h treatment, Table 5
Method: TMD-8 cells were treated with compounds diluted in 0.2% DMSO, dilution was done according to the following protocol: (1) making 500× stock solution in DMSO from 1 mM by 6-fold dilution, total 8 doses were included; (2) making 2× solution in cell culture medium by transferring 0.5 μl 500× stock solution into […]; (3) adding 15 μl of 2× solution to cells for incubation of 6 h.
After 6 h treatment, 10 μl 4xlysis buffer was added to each well; the plate was sealed and incubated for 30 min at room temperature on a plate shaker; Once the cells was lysed, 16 μL of cell lysate were transferred to a PE 384-well HTRF detection plate; 4 μL of pre-mixed HTRF antibodies were added to each well; the plate was covered with a plate sealer, and then spinned at 1000 rpm for 1 min, then incubated overnight at room temperature; the results were read on BMG PheraStar with HTRF protocol (337 nm-665 nm-620 nm).
as §2, §3
as §4, with “wherein,” for “Wherein,”

[3] = tested on: HEK-293 cells; test: HEK-293 cytotoxicity detection (CellTiter-Glo); details: Homo sapiens, HEK293, 72 h incubation
Method: HEK-293 cells were treated with compounds diluted in 0.2% DMSO, dilution was done according to the following protocol: (1) making 500× stock solution in DMSO from 5 mM by 4-fold dilution, total 8 doses were included; (2) making 2× solution in cell culture medium by transferring 0.5ul 500× stock solution into 125ul medium; (3) adding 50ul of 2× solution to cells for incubation of 72 h.
25 μl of the CellTiter-Glo®Reagent [(Promega) - Cat No. G7572] was added to each well in the 96-well plate. The contents were mixed for 2 minutes on an orbital shaker to induce cell lysis. The plate was then allowed to incubate at room temperature for 10 minutes to stabilize luminescent signal. Luminescence was recorded on BMG PheraStar with luminescence protocol.
The IC50 value of a compound can be obtained by fitting the following equation
as §3, §4

[4] = biological target: IRAKM (THP-1 cells) (Homo sapiens (Human), UniProt Q9Y616); test: IRAKM degradation HTRF assay in THP-1 cells; details: 6 h treatment
IRAKM (THP-1 cells), sequence (Q9Y616 whole entry): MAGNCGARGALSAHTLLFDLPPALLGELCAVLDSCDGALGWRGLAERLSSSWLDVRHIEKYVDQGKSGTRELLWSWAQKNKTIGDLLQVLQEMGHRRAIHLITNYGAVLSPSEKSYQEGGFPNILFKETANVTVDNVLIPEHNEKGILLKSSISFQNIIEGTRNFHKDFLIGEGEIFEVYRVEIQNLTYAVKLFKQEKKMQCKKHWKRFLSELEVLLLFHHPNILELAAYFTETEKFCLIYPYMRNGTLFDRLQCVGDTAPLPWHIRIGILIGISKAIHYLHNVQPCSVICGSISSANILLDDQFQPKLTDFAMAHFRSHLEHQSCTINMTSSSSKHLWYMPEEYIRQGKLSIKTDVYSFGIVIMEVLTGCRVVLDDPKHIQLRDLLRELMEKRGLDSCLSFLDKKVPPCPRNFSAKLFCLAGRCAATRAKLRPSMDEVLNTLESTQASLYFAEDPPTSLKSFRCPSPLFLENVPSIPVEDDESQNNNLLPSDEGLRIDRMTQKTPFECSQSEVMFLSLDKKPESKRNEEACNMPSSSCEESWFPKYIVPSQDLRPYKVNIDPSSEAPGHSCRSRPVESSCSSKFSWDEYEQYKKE
Method: THP-1 cells are treated with compounds diluted in 0.2% DMSO, dilution is done according to the following protocol: (1) make 500× stock solution in DMSO from 5 mM by 5-fold dilution, total 8 doses were included; (2) make 2× solution in cell culture medium by transferring 0.5 μl 500× stock solution into 125 μl medium; (3) 15 μl of 2× solution is added to cells and incubate for 6 h.
as §1, with “1 hour” for “30 min”, “plate(for triple mutant cells, the lysate were diluted by the qual volume 1xlysis buffer before transfer);” for “plate;”
as §2, §3
Wherein, X and Y are known values, and IC50, Hillslope, Top and Bottom are the parameters obtained by fitting with software. Y is the inhibition percentage (calculated from the equation), X is the concentration of the compound; IC50 is the concentration of the compound when the 50% inhibition is reached. […]

T1 sequence (Q06187 whole entry): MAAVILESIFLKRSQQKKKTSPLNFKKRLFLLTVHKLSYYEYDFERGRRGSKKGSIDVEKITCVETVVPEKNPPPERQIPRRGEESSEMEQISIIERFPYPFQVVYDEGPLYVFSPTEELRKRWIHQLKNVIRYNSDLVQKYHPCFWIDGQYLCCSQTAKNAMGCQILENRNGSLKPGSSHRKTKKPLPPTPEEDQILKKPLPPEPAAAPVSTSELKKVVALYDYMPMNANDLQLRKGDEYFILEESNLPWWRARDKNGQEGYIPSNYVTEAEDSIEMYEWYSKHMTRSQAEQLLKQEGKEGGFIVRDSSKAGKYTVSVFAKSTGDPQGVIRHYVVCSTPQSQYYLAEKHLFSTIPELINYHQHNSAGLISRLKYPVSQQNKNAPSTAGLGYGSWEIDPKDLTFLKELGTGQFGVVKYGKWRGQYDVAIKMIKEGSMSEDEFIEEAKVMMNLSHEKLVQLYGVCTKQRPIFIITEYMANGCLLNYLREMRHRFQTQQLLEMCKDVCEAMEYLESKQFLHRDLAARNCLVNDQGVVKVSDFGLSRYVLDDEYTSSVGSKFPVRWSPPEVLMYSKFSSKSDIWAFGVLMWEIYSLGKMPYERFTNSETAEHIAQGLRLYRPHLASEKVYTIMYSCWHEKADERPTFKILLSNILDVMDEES

| DC50 [1] [nM] | Dmax [1] [%] | DC50 [2] [nM] | DC50 [4] [nM] | Structure (SMILES) | IC50 [3] [nM] |
| --- | --- | --- | --- | --- | --- |
| > 2000 | 12 |  |  | Cc1cc(-c2n[nH]c3ncc(-c4ccc(C5CCN(CCc6ccc(C7CCC(=O)NC7=O)cc6)CC5)cc4)cc23)ccc1CNC(=O)c1nc(C(C)(C)C)no1 (stereo not shown) [Example 31, 3-(tert-butyl)-N-(4-(5-(4-(1-(4-(2,6-dioxopiperidin-3-yl)phenethyl)piperidin-4-yl)phenyl)-1H-pyrazolo[3,4-b]pyridin-3-yl)-2-methylbenzyl)-1,2,4-oxadiazole-5-carboxamide] |  |
| 5.33 | 97.4 |  |  | Cc1cc(-c2n[nH]c3ncc(-c4ccc(C5CCN(CCc6cc(F)c([C@H]7CCC(=O)NC7=O)c(F)c6)CC5)cc4)cc23)ccc1CNC(=O)c1nc(C(C)(C)C)no1 [Example 32, (R)-3-(tert-butyl)-N-(4-(5-(4-(1-(4-(2,6-dioxopiperidin-3-yl)-3,5-difluorophenethyl)piperidin-4-yl)phenyl)-1H-pyrazolo[3,4-b]pyridin-3-yl)-2-methylbenzyl)-1,2,4-oxadiazole-5-carboxamide] |  |
|  |  | 2.73 |  | Cc1cc(-c2cc(Nc3ccc(N4CCN(CCc5cc(F)c([C@H]6CCC(=O)NC6=O)c(F)c5)CC4)cn3)ncn2)ccc1[C@@H](C)NC(=O)c1nc(C(C)(C)C)no1 [Example C41, 3-(tert-butyl)-N—((R)-1-(4-(6-((5-(4-(4-((R)-2,6-dioxopiperidin-3-yl)-3,5-difluorophenethyl)piperazin-1-yl)pyridin-2-yl)amino)pyrimidin-4-yl)-2-methylphenyl)ethyl)-1,2,4-oxadiazole-5-carboxamide] | > 10000 |
|  |  |  | 2.8 | CCc1nc(C(N)=O)c(Nc2ccc(N3CCC(N4CCN(CCc5cc(F)c(C6CCC(=O)NC6=O)c(F)c5)CC4)CC3)c(OC)c2)nc1NC1CCOCC1 (stereo not shown) [Example D42, 3-((4-(4-(4-(4-(2,6-dioxopiperidin-3-yl)-3,5-difluorophenethyl)piperazin-1-yl)piperidin-1-yl)-3-methoxyphenyl)amino)-6-ethyl-5-((tetrahydro-2H-pyran-4-yl)amino)pyrazine-2-carboxamide] |  |
